# Results published in patent publication US20230146507A1, “N-PHENYL-3-MERCAPTOPROPANAMIDE DERIVATIVES AS METALLO-BETA-LACTAMASE INHIBITORS FOR THE TREATMENT OF BACTERIAL INFECTIONS” (Helmholtz-Zentrum Für Infektionsforschung GmbH, priority 2020, published 2023).
# Columns and labels:
# NDM-1 = biological target: T1, NDM-1 (Klebsiella pneumoniae, UniProt C7C422); experiment: In vitro inhibition assay (kinetic fluorescence-based activity assay), NDM-1; format: biochemical; settings: Means and SD of at least two independent experiments
# T1 construct: made in house
# Procedure: (§1) Protein expression and purification. The expression of IMP-7, VIM-1, and NDM-1 was performed according to the protocol previously published by Klingler et al. (Klingler, F. M.; Wichelhaus, T. A.; Frank, D.; Cuesta-Bernal, J.; El-Delik, J.; Müller, H. F.; Sjuts, H.; Gottig, S.; Koenigs, A.; Pos, K. M.; et al. Approved Drugs Containing Thiols as Inhibitors of Metallo-β-Lactamases: Strategy to Combat Multidrug-Resistant Bacteria. J. Med. Chem. 2015, 58 (8), 3626-3630. https://doi.org/10.1021/jm501844d) with slight modifications.
# (§2) In vitro inhibition assay. Activity assays for NDM-1, VIM-1, VIM-2 and IMP-7 were carried out, as described by Klingler et al. Final protein concentrations were 0.5 nM (NDM-1), 4.0 nM (VIM-1), and 0.1 nM (IMP-7) in a 50 mM HEPES buffer (pH 7.5, 0.01% Triton X-100) Substrate (Fluorocillin™ (Invitrogen, Darmstadt, Germany) was dissolved in assay buffer to a final concentration of 888 nM. Test compounds were dissolved and pre-diluted in DMSO (final concentration: 1%). In a black polystyrol 96-well plate (Corning) an amount of […] of the respective inhibitor solution at different concentrations was incubated with […] of respective protein containing buffer for 30 minutes at room temperature. […] of substrate solution was added. The readout of the emitted fluorescence was started immediately (45 s for 30 cycles) using a Tecan Infinite F200Pro (Tecan Group Ltd; excitation at 495 nm and emission at 525 nm). Blank controls were performed without enzyme. Positive controls were performed with enzyme but without inhibitor. The inhibitory activity of each test compound was measured in three independent experiments. For calculation of IC50 values, data obtained from measurements with eight different inhibitor concentrations were used. For the evaluation of the sigmoidal dose response equation (variable slope with four parameters) GraphPad Prism 5 (GraphPad Software, La Jolla, Calif., USA) was used.
# IMP-7 = IMP-7 (Pseudomonas aeruginosa, UniProt Q93AU3); experiment: In vitro inhibition assay (kinetic fluorescence-based activity assay), IMP-7; format: biochemical; settings: Means and SD of at least two independent experiments
# Procedure: as §1, §2
# VIM-1 = biological target: T2, VIM-1 (Pseudomonas aeruginosa, UniProt A0A0F7KYQ8); experiment: In vitro inhibition assay (kinetic fluorescence-based activity assay), VIM-1; format: biochemical; settings: Means and SD of at least two independent experiments
# T2 construct: made in house
# Procedure: as §1, §2
# [1] = tested on: different isolates from E. coli and P. aeruginosa; experiment: MIC assay, intrinsic antibacterial activity; format: cell-based; settings: compound alone
# E. coli NDM-1 (T2359) = experiment: Checkerboard assay with imipenem, E. coli NDM-1 (T2359); format: cell-based; settings: Table 6
# Procedure: (§3) Fractional inhibitory concentration index (FICI). The checkerboard assay was performed to test for synergy in vitro. […] FICIs≤0.5 were defined as synergistic; FICIs from >0.5 to […] were defined as additive; FICIs from 1 to ≤4 were defined as indifferent and FICIs>4 were defined as antagonistic (Doern, C. D. When Does 2 plus 2 Equal 5? A Review of Antimicrobial Synergy Testing. J. Clin. Microbial. 2014, 52 (12), 4124-4128. https://doi.org/10.1128/JCM.01121-14).
# E. coli VIM-1 (T2544) = experiment: Checkerboard assay with imipenem, E. coli VIM-1 (T2544); format: cell-based
# Procedure: as §3
# E. coli IMP-1 (T2360) = experiment: Checkerboard assay with imipenem, E. coli IMP-1 (T2360); format: cell-based
# Procedure: as §3
# T1 sequence (C7C422 29-270, looked up, species assumed): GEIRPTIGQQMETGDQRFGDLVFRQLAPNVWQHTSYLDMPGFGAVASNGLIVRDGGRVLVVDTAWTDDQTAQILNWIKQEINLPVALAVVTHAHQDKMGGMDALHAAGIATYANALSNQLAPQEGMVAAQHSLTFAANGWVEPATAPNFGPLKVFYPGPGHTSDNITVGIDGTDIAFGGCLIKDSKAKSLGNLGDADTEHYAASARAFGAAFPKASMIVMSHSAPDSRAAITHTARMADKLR
# IMP-7, sequence (Q93AU3 entry or part of it): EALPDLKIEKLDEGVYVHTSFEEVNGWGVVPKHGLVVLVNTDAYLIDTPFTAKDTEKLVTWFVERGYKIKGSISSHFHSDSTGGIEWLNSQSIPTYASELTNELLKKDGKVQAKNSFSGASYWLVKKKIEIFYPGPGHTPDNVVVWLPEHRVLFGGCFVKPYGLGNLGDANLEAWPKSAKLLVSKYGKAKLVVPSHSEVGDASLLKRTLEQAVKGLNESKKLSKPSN
Compound,IC50 (NDM-1) [µM],IC50 (IMP-7) [µM],IC50 (VIM-1) [µM],intrinsic antibacterial activity (MIC) [1],Imipenem MIC (E. coli NDM-1 (T2359); +2 mg/L compound) [µg/mL],Imipenem MIC (E. coli NDM-1 (T2359); +4 mg/L compound) [µg/mL],Imipenem MIC (E. coli NDM-1 (T2359); +8 mg/L compound) [µg/mL],Imipenem MIC (E. coli NDM-1 (T2359); +16 mg/L compound) [µg/mL],Imipenem MIC (E. coli NDM-1 (T2359); +32 mg/L compound) [µg/mL],Imipenem MIC (E. coli NDM-1 (T2359); +64 mg/L compound) [µg/mL],Imipenem MIC (E. coli NDM-1 (T2359); +128 mg/L compound) [µg/mL],Imipenem MIC (E. coli VIM-1 (T2544); +2 mg/L compound) [µg/mL],Imipenem MIC (E. coli VIM-1 (T2544); +4 mg/L compound) [µg/mL],Imipenem MIC (E. coli VIM-1 (T2544); +8 mg/L compound) [µg/mL],Imipenem MIC (E. coli VIM-1 (T2544); +16 mg/L compound) [µg/mL],Imipenem MIC (E. coli VIM-1 (T2544); +32 mg/L compound) [µg/mL],Imipenem MIC (E. coli VIM-1 (T2544); +64 mg/L compound) [µg/mL],Imipenem MIC (E. coli VIM-1 (T2544); +128 mg/L compound) [µg/mL],Imipenem MIC (E. coli IMP-1 (T2360); +2 mg/L compound) [µg/mL],Imipenem MIC (E. coli IMP-1 (T2360); +4 mg/L compound) [µg/mL],other results
CCN(CC)Cc1cccc(NC(=O)CCS)c1 [HIPS5664],6.5 ± 0.4,5.5 ± 0.7,0.8 ± 0.1,,,,,,,,,,,,,,,,,,
O=C(CCS)Nc1cccc(S(=O)(=O)O)c1 [HIPS5672],1.3,3.6 ± 0.3,1.6 ± 0.1,no intrinsic antibacterial activity,128,128,128,128,128,32,2,64,64,64,32,32,8,4,2,2,Imipenem MIC (E. coli IMP-1 (T2360); +8 mg/L compound): 2 µg/mL; Imipenem MIC (E. coli IMP-1 (T2360); +16 mg/L compound): 1 µg/mL; Imipenem MIC (E. coli IMP-1 (T2360); +32 mg/L compound): 1 µg/mL; Imipenem MIC (E. coli IMP-1 (T2360); +64 mg/L compound): 1 µg/mL; Imipenem MIC (E. coli IMP-1 (T2360); +128 mg/L compound): 0.5 µg/mL
NC(=O)NS(=O)(=O)c1ccc(NC(=O)CCS)cc1 [HIPS5682],8.6 ± 0.2,12.6 ± 2.8,2 ± 0.1,no intrinsic antibacterial activity,128,128,128,128,128,64,16,32,32,32,32,16,8,2,2,2,Imipenem MIC (E. coli IMP-1 (T2360); +8 mg/L compound): 2 µg/mL; Imipenem MIC (E. coli IMP-1 (T2360); +16 mg/L compound): 1 µg/mL; Imipenem MIC (E. coli IMP-1 (T2360); +32 mg/L compound): 1 µg/mL; Imipenem MIC (E. coli IMP-1 (T2360); +64 mg/L compound): 1 µg/mL; Imipenem MIC (E. coli IMP-1 (T2360); +128 mg/L compound): 1 µg/mL
N=C(N)NS(=O)(=O)c1ccc(NC(=O)CCS)cc1 [HIPS5683],2.1 ± 0.1,3.3 ± 0.4,0.5,no intrinsic antibacterial activity,128,128,128,128,128,64,16,32,32,32,32,16,8,2,2,1,Imipenem MIC (E. coli IMP-1 (T2360); +8 mg/L compound): 1 µg/mL; Imipenem MIC (E. coli IMP-1 (T2360); +16 mg/L compound): 1 µg/mL; Imipenem MIC (E. coli IMP-1 (T2360); +32 mg/L compound): 1 µg/mL; Imipenem MIC (E. coli IMP-1 (T2360); +64 mg/L compound): 1 µg/mL; Imipenem MIC (E. coli IMP-1 (T2360); +128 mg/L compound): 0.5 µg/mL
O=C(CCS)Nc1ccc(C(=O)O)cc1 [HIPS5695],1 ± 0.4,,0.6,no intrinsic antibacterial activity,128,128,128,128,128,32,8,16,16,16,16,4,2,1,2,2,IC50 (μM) IMP-7 (IMP-7): n.i.; Imipenem MIC (E. coli IMP-1 (T2360); +8 mg/L compound): 2 µg/mL; Imipenem MIC (E. coli IMP-1 (T2360); +16 mg/L compound): 1 µg/mL; Imipenem MIC (E. coli IMP-1 (T2360); +32 mg/L compound): 1 µg/mL; Imipenem MIC (E. coli IMP-1 (T2360); +64 mg/L compound): 0.5 µg/mL; Imipenem MIC (E. coli IMP-1 (T2360); +128 mg/L compound): 0.5 µg/mL

# Now from value to molecule, other results behind:
IC50 (NDM-1) [µM],IC50 (IMP-7) [µM],IC50 (VIM-1) [µM],Compound,intrinsic antibacterial activity (MIC) [1],Imipenem MIC (E. coli NDM-1 (T2359); +2 mg/L compound) [µg/mL],Imipenem MIC (E. coli NDM-1 (T2359); +4 mg/L compound) [µg/mL],Imipenem MIC (E. coli NDM-1 (T2359); +8 mg/L compound) [µg/mL],Imipenem MIC (E. coli NDM-1 (T2359); +16 mg/L compound) [µg/mL],Imipenem MIC (E. coli NDM-1 (T2359); +32 mg/L compound) [µg/mL],Imipenem MIC (E. coli NDM-1 (T2359); +64 mg/L compound) [µg/mL],Imipenem MIC (E. coli NDM-1 (T2359); +128 mg/L compound) [µg/mL],Imipenem MIC (E. coli VIM-1 (T2544); +2 mg/L compound) [µg/mL],Imipenem MIC (E. coli VIM-1 (T2544); +4 mg/L compound) [µg/mL],Imipenem MIC (E. coli VIM-1 (T2544); +8 mg/L compound) [µg/mL],Imipenem MIC (E. coli VIM-1 (T2544); +16 mg/L compound) [µg/mL],Imipenem MIC (E. coli VIM-1 (T2544); +32 mg/L compound) [µg/mL],Imipenem MIC (E. coli VIM-1 (T2544); +64 mg/L compound) [µg/mL],Imipenem MIC (E. coli VIM-1 (T2544); +128 mg/L compound) [µg/mL],Imipenem MIC (E. coli IMP-1 (T2360); +2 mg/L compound) [µg/mL],Imipenem MIC (E. coli IMP-1 (T2360); +4 mg/L compound) [µg/mL],other results
2.5 ± 0.2,2.6 ± 0.1,0.1,O=C(CCS)Nc1cccc([N+](=O)[O-])c1 [HIPS5662],,,,,,,,,,,,,,,,,,
2.8 ± 0.1,2.1 ± 0.2,0.8,CN(C)S(=O)(=O)c1ccc(NC(=O)CCS)cc1 [HIPS5665],,,,,,,,,,,,,,,,,,
6.5 ± 0.5,2.1 ± 0.3,0.5,Nc1ccc(NC(=O)CCS)cc1 [HIPS5666],,,,,,,,,,,,,,,,,,
6.4 ± 0.6,5.8 ± 0.4,1.5 ± 0.1,CN1CCN(Cc2ccc(NC(=O)CCS)cc2)CC1 [HIPS5696],,,,,,,,,,,,,,,,,,
